Results on 1 molecule are retold here after patent publication US11202791B2, “Compositions containing tannic acids and uses thereof” (SyneuRx International (Taiwan) Corp., priority 2016, dated 2021).

Holding throughout (format): in vivo, C57BL/6J male mice
The subject of experiment [1] is MK-801 treated mice. Put plainly: Sucrose preference (anhedonia) in MK-801 treated mice. The settings on record: MK-801 alone 0.2 mg/kg i.p. As to the method:
(§1) Each mouse in Groups 2-5 received an acute administration of MK-801 (Sigma-Aldrich, USA) dissolved in normal saline, 0.1 mg/kg for open field and Barnes maze tasks, and 0.2 mg/kg for prepulse inhibition and sucrose preference tasks by i.p. injection) 20 minutes prior to the behavioral tests. Each mouse in Groups 3-6 received an acute oral administration of tannic acids (Merck Millipore, Germany; dissolved in PBS, 10, 30, or 100 mg/kg, p.o.) 20 minutes prior to the MK-801 administration.
Sucrose preference test has been commonly examined in mouse models of several mental illnesses, including, but not limited to, depression, major depression disorder, anhedonia, negative symptoms of schizophrenia, chronic mild and unpredictable stress (see Anderson et al., 2006; Carvalho et al., 2013; Briones et al., 2011; Der-Avakian and Markou, 2012; Tye et al., 2013; Edwards and Koob, 2012; Brigman et al., 2010; Koo and Duman, 2007; Nestler and Hyman, 2010; Overstreet, 2012; Papp et al., 1991; Santiago et al., 2010; Skalisz et al., 2002; Szczypka et al., 2001; Taylor et al., 2010; Vardigan et al., 2010; Willner et al., 1987; You et al., 2011).

For experiment [2], the system named is MK-801 treated mice. Put plainly: Open field, MK-801-induced hyper-locomotion. As to the method:
Each mouse in Groups 2-6 received an acute administration of MK-801 (Sigma-Aldrich, USA) dissolved in normal saline, 0.1 mg/kg, i.p.) 20 minutes prior to the behavioral tests. Each mouse in Groups 3-6 received an acute administration of tannic acids (Sigma-Aldrich, USA; dissolved in PBS, 10, 15, 20 or 30 mg/kg, i.p.) 20 minutes prior to the MK-801 administration.
as §1
Each mouse in Groups 2-5 received an acute administration of 0.2 mg/kg MK-801 (Sigma-Aldrich, USA) dissolved in normal saline by i.p. injection 20 minutes prior to the locomotion activity test. […]
The open field task is a common measurement of novelty induced exploratory behavior and general activity in both mice and rats. […] Their spontaneous locomotor activities were measured for 30 minutes using the SMART video tracking system (Panlab, Harvard Apparatus). The travel distance of each mouse was measured as an index of locomotion activity.

Experiment [3] has as its system MK-801 treated mice. Description: Prepulse inhibition in MK-801-treated mice.

In the case of `C[C@]12N[C@H](Cc3ccccc31)c1ccccc12` [MK-801, dizocilpine], in the experiment with MK-801 treated mice [1], the “preference toward the sucrose solution (2%) vs control group” value is reported as “did not show the preference toward the sucrose solution”. In addition, the “locomotion activity vs control group” value in the experiment with MK-801 treated mice [2] (MK-801 alone 0.1 mg/kg i.p. (Example 3)) and with MK-801 treated mice [2] (MK-801 alone 0.2 mg/kg i.p. (Example 9)) was “hyper-locomotion activity” each time. Further, the “prepulse inhibition vs control group” value with MK-801 treated mice [3] (MK-801 alone 0.2 mg/kg i.p. (Example 4)) is “robust prepulse inhibition deficits”; in the experiment on MK-801 treated mice [3] (MK-801 alone 0.3 mg/kg i.p., all prepulse intensities (Example 9)), “robust prepulse inhibition deficits”.
